Like-named read-outs stand apart in the source and are kept apart here.
Assays:
[1] = Dog oral PK and bioavailability studies; assay type: in vivo
Source text: (§1) The following studies have been conducted: (a) in vitro drug protein binding, transporter (organic anion transporting polypeptide [OATP], P-glycoprotein [P-gp], breast cancer-related protein [BCRP], and multiple drug resistance protein 1 [MDR1]), and cytochrome P-450 enzyme assays to investigate absorption, distribution, and excretion; (b) in vivo MGL-3196 rat and dog oral PK and bioavailability studies; (c) in vivo ^14C-MGL-3196 rat and dog oral pharmacokinetics, absorption, excretion, and tissue distribution by quantitative whole-body autoradiography (QWBA) studies; and (d) liver disposition of MGL-3196 using an in vitro sandwiched hepatocyte model system (B-CLEAR® technology) in dog (SCDH) and human (SCHH) hepatocytes.
(§2) Rat & Dog PK/Bioavailability Studies were also performed.

[2] = Dog liver, bile, plasma distribution; assay type: in vivo; settings: for concentration at 4 h: Beagle, po; for concentration at 4 h / Concentration in Bile: 4 hours after single daily 100 mg/kg oral doses for four days
Source text: Tables 2A-2B show ^14C-MGL-3196 dog ADME study design.

MRP2 = MRP2 (Homo sapiens, UniProt Q92887); assay: In vitro drug transporter assay, MRP2; assay type: in vitro ADME
[3] = Rat oral PK and bioavailability studies; assay type: in vivo
Source text: as §1, §2

OAT3 = molecular target: T1, OAT3 (Homo sapiens, UniProt Q8TCC7); assay: In vitro drug transporter assay, OAT3; assay type: in vitro ADME; settings: read-out: Inhibitor of: OAT3, IC50
T1 sequence (Q8TCC7 1-542): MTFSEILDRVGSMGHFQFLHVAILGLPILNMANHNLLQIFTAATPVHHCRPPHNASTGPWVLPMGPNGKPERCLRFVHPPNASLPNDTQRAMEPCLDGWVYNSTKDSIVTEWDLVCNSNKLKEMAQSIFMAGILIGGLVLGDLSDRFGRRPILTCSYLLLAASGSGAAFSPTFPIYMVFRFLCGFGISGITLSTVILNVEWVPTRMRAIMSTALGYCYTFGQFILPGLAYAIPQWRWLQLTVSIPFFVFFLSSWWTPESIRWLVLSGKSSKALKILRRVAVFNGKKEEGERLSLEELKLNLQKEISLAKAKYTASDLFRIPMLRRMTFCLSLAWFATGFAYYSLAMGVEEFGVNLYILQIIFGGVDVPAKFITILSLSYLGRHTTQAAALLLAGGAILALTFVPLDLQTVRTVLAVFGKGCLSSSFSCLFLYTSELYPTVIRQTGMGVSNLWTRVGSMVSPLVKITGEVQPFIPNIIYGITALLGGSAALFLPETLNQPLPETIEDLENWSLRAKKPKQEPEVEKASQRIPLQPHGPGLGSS

CYP3A4 = CYP3A4 (Homo sapiens, UniProt P08684); assay: In vitro Cytochrome P-450 enzyme assay, CYP3A4; assay type: in vitro ADME
Source text: as §1

BCRP = molecular target: T2, BCRP (Homo sapiens, UniProt Q9UNQ0); assay: In vitro drug transporter assay, BCRP; assay type: in vitro ADME
T2 sequence (Q9UNQ0 1-655): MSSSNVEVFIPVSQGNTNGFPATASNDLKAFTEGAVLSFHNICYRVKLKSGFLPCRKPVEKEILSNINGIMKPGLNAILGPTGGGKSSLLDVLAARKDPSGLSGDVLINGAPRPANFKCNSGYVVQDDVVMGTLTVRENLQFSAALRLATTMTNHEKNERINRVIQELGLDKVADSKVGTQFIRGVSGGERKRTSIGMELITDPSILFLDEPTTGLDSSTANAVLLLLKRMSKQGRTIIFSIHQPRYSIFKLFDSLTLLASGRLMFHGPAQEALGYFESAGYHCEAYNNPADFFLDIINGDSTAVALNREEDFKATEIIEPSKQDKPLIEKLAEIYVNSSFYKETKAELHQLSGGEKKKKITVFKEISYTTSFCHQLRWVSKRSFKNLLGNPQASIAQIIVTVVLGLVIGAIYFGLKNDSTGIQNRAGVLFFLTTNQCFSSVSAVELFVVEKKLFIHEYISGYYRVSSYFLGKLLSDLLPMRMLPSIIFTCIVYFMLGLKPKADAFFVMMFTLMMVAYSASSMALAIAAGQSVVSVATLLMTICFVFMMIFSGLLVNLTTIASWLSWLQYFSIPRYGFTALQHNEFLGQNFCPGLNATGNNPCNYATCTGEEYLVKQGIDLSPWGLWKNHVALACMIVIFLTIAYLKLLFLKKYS
Source text: as §1

OCT2 = molecular target: T3, OCT2 (Homo sapiens, UniProt O15244); assay: In vitro drug transporter assay, OCT2; assay type: in vitro ADME
T3 sequence (O15244 1-555): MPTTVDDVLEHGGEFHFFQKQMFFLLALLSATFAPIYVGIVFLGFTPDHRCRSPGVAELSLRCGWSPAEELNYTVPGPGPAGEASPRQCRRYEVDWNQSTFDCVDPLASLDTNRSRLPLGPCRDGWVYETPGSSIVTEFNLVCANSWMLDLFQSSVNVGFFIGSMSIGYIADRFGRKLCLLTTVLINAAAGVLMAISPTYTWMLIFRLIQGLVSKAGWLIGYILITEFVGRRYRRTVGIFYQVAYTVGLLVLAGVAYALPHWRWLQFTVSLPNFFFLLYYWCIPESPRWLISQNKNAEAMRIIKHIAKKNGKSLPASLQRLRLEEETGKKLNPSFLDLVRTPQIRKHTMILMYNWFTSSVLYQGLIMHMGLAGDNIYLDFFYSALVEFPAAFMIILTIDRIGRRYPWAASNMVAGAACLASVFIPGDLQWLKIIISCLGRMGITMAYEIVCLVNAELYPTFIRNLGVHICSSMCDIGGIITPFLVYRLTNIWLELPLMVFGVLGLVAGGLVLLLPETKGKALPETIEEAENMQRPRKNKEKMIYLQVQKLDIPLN

MRP2, sequence (Q92887 whole entry, species assumed): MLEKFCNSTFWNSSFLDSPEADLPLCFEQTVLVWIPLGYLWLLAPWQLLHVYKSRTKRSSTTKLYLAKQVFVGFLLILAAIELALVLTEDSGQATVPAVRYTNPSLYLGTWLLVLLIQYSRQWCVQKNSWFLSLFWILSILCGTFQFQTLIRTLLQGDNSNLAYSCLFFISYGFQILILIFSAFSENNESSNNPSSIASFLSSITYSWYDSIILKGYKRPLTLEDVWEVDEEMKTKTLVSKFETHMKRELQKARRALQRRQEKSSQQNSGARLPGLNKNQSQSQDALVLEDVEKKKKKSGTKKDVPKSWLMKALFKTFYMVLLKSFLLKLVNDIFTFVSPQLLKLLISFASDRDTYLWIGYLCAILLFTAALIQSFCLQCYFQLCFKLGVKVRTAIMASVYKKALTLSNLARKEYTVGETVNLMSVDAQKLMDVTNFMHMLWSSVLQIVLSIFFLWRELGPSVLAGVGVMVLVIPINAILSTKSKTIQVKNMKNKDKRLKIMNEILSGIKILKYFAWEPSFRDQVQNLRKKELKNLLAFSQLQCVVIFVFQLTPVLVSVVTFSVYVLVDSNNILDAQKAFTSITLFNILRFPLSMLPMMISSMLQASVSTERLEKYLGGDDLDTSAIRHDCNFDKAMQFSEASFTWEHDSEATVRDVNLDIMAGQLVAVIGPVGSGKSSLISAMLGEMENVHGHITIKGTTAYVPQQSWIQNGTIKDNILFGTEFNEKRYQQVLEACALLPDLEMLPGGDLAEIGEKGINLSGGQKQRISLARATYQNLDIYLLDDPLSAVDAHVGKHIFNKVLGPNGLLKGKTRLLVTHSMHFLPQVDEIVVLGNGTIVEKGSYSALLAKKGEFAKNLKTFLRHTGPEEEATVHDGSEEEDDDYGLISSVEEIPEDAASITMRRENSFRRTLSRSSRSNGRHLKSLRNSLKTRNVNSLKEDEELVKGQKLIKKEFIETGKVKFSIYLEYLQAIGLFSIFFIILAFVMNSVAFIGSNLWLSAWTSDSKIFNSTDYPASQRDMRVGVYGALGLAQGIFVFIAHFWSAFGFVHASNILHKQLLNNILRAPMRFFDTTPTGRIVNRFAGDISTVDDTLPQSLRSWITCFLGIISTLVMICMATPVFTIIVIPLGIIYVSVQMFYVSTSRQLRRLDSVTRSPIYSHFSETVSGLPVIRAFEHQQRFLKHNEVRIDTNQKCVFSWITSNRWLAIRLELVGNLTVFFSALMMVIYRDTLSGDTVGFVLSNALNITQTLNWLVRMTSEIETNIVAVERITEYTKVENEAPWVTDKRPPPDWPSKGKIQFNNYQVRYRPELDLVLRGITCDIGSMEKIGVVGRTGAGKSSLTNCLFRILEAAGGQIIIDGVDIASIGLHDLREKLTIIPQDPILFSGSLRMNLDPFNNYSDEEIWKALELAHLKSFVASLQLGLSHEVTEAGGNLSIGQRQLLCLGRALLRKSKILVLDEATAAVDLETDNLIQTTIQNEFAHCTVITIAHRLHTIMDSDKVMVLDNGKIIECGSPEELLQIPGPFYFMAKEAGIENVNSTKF
CYP3A4, sequence (P08684 2-503 limits assumed): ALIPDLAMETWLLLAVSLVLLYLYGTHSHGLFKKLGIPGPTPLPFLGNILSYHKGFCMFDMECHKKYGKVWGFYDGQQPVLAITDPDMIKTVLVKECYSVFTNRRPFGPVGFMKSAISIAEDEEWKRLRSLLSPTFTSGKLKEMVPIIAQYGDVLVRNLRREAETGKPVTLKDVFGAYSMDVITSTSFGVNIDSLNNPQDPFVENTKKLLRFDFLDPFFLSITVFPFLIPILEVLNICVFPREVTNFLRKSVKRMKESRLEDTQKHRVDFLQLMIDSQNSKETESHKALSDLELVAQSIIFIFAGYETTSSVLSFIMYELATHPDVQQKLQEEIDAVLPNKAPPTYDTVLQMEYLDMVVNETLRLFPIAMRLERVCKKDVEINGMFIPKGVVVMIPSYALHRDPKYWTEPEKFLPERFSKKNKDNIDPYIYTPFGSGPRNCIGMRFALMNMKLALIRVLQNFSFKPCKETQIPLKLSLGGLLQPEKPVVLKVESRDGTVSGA

CC(C)c1cc(Oc2c(Cl)cc(-n3nc(C#N)c(=O)[nH]c3=O)cc2Cl)n[nH]c1=O [MGL-3196, 2-(3,5-dichloro-4-((5-isopropyl-6-oxo-1,6-dihydropyridazin-3-yl)oxy)phenyl)-3,5-dioxo-2,3,4,5-tetrahydro-1,2,4-triazine-6-carbonitrile]
bioavailability ([1]; dog, plasma, po): 11 to 135% | half-life ([1]; dog, plasma, dogs, oral dosing, read-out: mean elimination half-life): 3 to 5.5 h | time of maximum plasma concentrations ([1]; dogs, oral dosing): 1 to 8 h | concentration at 4 h ([2]; dog, hepatic portal vein plasma, 100 mg/kg, Dog 1, read-out: Concentration in Hepatic Portal Vein Plasma): 18.8 µg/mL | concentration at 4 h ([2]; dog, hepatic portal vein plasma, 100 mg/kg, Dog 2, read-out: Concentration in Hepatic Portal Vein Plasma): 86.6 µg/mL | concentration at 4 h ([2]; dog, hepatic portal vein plasma, 100 mg/kg, Dog 3, read-out: Concentration in Hepatic Portal Vein Plasma): 98.6 µg/mL | concentration at 4 h ([2]; dog, hepatic portal vein plasma, 100 mg/kg, Mean, read-out: Concentration in Hepatic Portal Vein Plasma): 68 µg/mL | concentration at 4 h ([2]; dog, liver, 100 mg/kg, Dog 1, read-out: Concentration in Liver): 129000 ng/g | concentration at 4 h ([2]; dog, liver, 100 mg/kg, Dog 2, read-out: Concentration in Liver): 319000 ng/g | concentration at 4 h ([2]; dog, liver, 100 mg/kg, Dog 3, read-out: Concentration in Liver): 210000 ng/g | concentration at 4 h ([2]; dog, liver, 100 mg/kg, Mean, read-out: Concentration in Liver): 219000 ng/g | concentration at 4 h ([2]; dog, systemic plasma, 100 mg/kg, Dog 1, read-out: Concentration in Systemic Plasma): 16.7 µg/mL | concentration at 4 h ([2]; dog, systemic plasma, 100 mg/kg, Dog 2, read-out: Concentration in Systemic Plasma): 81.5 µg/mL | concentration at 4 h ([2]; dog, systemic plasma, 100 mg/kg, Dog 3, read-out: Concentration in Systemic Plasma): 115 µg/mL | concentration at 4 h ([2]; dog, systemic plasma, 100 mg/kg, Mean, read-out: Concentration in Systemic Plasma): 71.1 µg/mL | Concentration in Bile ([2]; Dog 1): 26,400,000 ng/mL | Concentration in Bile ([2]; Dog 2): 10,400,000 ng/mL | Concentration in Bile ([2]; Dog 3): 15,500,000 ng/mL | Concentration in Bile ([2]; Mean): 17,400,000 ng/mL | Kp at 4 h ([2]; bile versus plasma, oral, 100 mg/kg, dog, 4 h post-dose, read-out: concentration in bile higher than in plasma): ~250 | concentration in bile higher than in liver ([2]; dog, 4 h post-dose): ~80 × | Kp at 4 h ([2]; liver versus plasma, oral, dog, 4 h, 100 mg/kg, read-out: liver to plasma ratio): 3.1 | Kp at 24 h ([2]; liver versus plasma, oral, dog, 24 h, 100 mg/kg, read-out: liver to plasma ratio): 267 | Inhibitor of: MRP2 (MRP2): not an inhibitor | Substrate for: MRP2 (MRP2): not a substrate | bioavailability ([3]; rat, plasma, po): 45 to 98% | half-life ([3]; rat, plasma, rats, oral dosing, read-out: mean elimination half-life): 2.5 to 7 h | time of maximum plasma concentrations ([3]; rats, oral dosing): 2 to 6 h | IC50 (OAT3): 4.5 µM | Inhibitor of: CYP3A4 (CYP3A4): CYP3A4 (weak inhibitor) | Substrate for: BCRP (BCRP): BCRP | Inhibitor of: BCRP, % inhibition (BCRP; @ 25 uM genistein): 3-sulfate; 24% @ 25 uM genistein) | IC50 (BCRP; for Estrone-3-sulfate, read-out: Inhibitor of: BCRP, IC50): 27.4 µM | Inhibitor of: OCT2 (OCT2): not an inhibitor

Reference: patent US11090308B2, “Methods of treating liver disorders or lipid disorders with a THR-beta agonist” (Madrigal Pharmaceuticals, Inc., priority 2016, dated 2021)
